Like-named read-outs stand apart in the source and are kept apart here.
What was measured:
CB1 receptor = CB1 receptor (Rattus norvegicus, UniProt P20272); assay: biochemical; type: binding; details: for Ki: 1 nM [3H] CP 55,940, rat whole brain P2 membranes, 30° C. for 1 hr; for CB1 binding affinity, fold decrease on shortening the n-pentyl amide: compared to O-1269
Protocol: (§1) Male ICR mice (25-32 g), purchased from Harlan (Dublin, Va.), were housed in groups of five. All animals were kept in a temperature-controlled (20-22° C.) environment with a 12-hour light-dark cycle (lights on at 7 a.m.). Separate mice were used for testing each drug dose in the in vivo behavioral procedures. The mice were maintained on a […] light: dark cycle, and received food and water ad libitum. Brain tissue for binding studies was obtained from male Sprague-Dawley rats (150-200 g) purchased from Harlan Laboratories (Dublin, Va.).
All assays, as described briefly below, were performed in triplicate, and the results represent the combined data from three to six individual experiments. Following decapitation and rapid removal of the brain, whole brain was homogenized and centrifuged. The resulting pellet was termed P1. The supernatant was saved and combined with the two subsequent supernatants obtained from washing of the P1 pellet. The combined supernatant fractions were centrifuged, resulting in the P2 pellet. After further incubation and centrifuging, this pellet was resuspended in assay buffer to a protein concentration of approximately 2 mg/ml. The membrane preparation was quickly frozen in a bath solution of dry ice and 2-methylbutane (Sigma Chemical Co., St. Louis, Mo.), then stored at −80° C. for no more than 2 weeks. […] Binding was initiated by the addition of 150 μg of P2 membrane to test tubes containing 1 nM of [3H] […] Following incubation at 30° C. for 1 hr, binding was terminated by addition of ice-cold buffer and vacuum filtration through pretreated filters in a 12-well sampling manifold (Millipore, Bedford, Mass.). After washing, filters were placed into plastic scintillation vials (Packard, Downer Grove, Ill.) and shaken. The quantity of radioactivity present was determined by liquid scintillation spectrometry.

mice [1] = assay: Spontaneous (locomotor) activity in mice, compound alone (agonism test); type: in vivo; details: for Max stim of spontaneous locomotor activity, Compound Alone (in words): at the dose(s) [mg/kg] given in parentheses in the cell; for change in vivo at 30 mg/kg: read-out: Max stim of spontaneous locomotor activity, Compound Alone; for Max % inhibit of spontaneous locomotor activity, Compound Alone (in words: stimulation instead of inhibition): doses in mg/kg
Protocol: as §1
(§2) Measurement of spontaneous activity in mice occurred in standard activity chambers interfaced with a Digiscan Animal Activity Monitor (Omnitech Electronics, Inc., Columbus, Ohio). A standard tail-flick apparatus (described by Dewey et al., 1970) and a digital thermometer (Fisher Scientific, Pittsburgh, Pa.) were used to measure antinociception and rectal temperature, respectively.
(§3) All drugs were administered to the mice intravenously (i.v.) in the tail vein at a volume of 0.1 ml/10 g.
(§4) Maximum latency of 10 sec was used.

mice [2] = assay: Tail-flick antinociception in mice, compound alone (agonism test); type: in vivo; details: for ED50: Mus musculus, iv
Protocol: as §1, §2, §3, §4

mice [3] = assay: Rectal temperature (hypothermia) in mice, compound alone (agonism test); type: in vivo; details: for ED50: Mus musculus, iv
Protocol: as §1, §2, §3, §4

mice [4] = assay: Spontaneous activity in mice, compound in combination with 3 mg/kg Δ^9-THC (antagonism test); type: in vivo; details: for SA: maximum % antagonism of 3 mg/kg Δ^9-THC: analog 10 min before Δ^9-THC
Protocol: as §1, §2, §3, §4

mice [5] = assay: Tail-flick antinociception in mice, compound in combination with 3 mg/kg Δ^9-THC (antagonism test); type: in vivo
Protocol: as §1, §2, §3, §4

mice [6] = assay: Rectal temperature in mice, compound in combination with 3 mg/kg Δ^9-THC (antagonism test); type: in vivo
Protocol: as §1, §2, §3, §4

[7] = Mus musculus, iv, at 10 mg/kg i.v., read-out: Max % inhibit of spontaneous locomotor activity, Compound Alone
[8] = Mus musculus, iv, mice, i.v., 95% confidence limits in parentheses, * = estimated ED50, dose-effect curve not linear, read-out: SA (suppression of spontaneous activity) ED50
[9] = 20 min, i.v., 20 min post-injection, 95% confidence limits in parentheses, * = estimated ED50, dose-effect curve not linear, read-out: TF (tail flick, % MPE) ED50
[10] = 0.5 h, i.v., 30 min post-injection, 95% confidence limits in parentheses, read-out: RT (rectal temperature) ED50
[11] = Mus musculus, iv, at 30 mg/kg i.v.
[12] = Mus musculus, iv, mice, i.v., read-out: SA: > dose, 50% activity not achieved at this highest dose tested
[13] = read-out: TF: > dose, 50% activity not achieved at this highest dose tested
[14] = read-out: RT: > dose, 50% activity not achieved at this highest dose tested

CB1 receptor, sequence (P20272 whole entry): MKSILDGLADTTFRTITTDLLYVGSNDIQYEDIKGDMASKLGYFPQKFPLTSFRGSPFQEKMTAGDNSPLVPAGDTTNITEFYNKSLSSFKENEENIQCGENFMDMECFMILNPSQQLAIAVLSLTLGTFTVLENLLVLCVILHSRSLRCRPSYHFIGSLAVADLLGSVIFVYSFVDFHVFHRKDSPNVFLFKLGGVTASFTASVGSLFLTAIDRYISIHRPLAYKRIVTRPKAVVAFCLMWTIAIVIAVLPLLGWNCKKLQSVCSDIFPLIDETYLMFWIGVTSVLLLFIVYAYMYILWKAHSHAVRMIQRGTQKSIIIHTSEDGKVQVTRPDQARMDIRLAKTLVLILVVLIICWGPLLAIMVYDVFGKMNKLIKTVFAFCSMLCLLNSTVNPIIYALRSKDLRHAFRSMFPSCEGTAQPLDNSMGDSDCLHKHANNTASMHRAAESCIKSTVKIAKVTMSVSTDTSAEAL

Row | Molecule | Ki (CB1 receptor; read-out: Ki) | CB1 binding affinity, fold decrease on shortening the n-pentyl amide (CB1 receptor) | inhibition in vivo at 10 mg/kg (mice [1]; [7]) | ED50 (mice [1]; [8]) | Max stim of spontaneous locomotor activity, Compound Alone (in words) (mice [1]) | ED50 (mice [2]; [9]) | ED50 (mice [3]; [10]) | change in vivo at 30 mg/kg (mice [1]; [11]) | ED50 (mice [1]; [12]) | Max % inhibit of spontaneous locomotor activity, Compound Alone (in words: stimulation instead of inhibition) (mice [1]) | ED50 (mice [2]; [13]) | ED50 (mice [3]; [14]) | Ki (CB1 receptor; Ki (nM)) | also measured
1 | Cc1c(C(=O)NCCF)nn(-c2ccc(Cl)cc2Cl)c1-c1ccc(Cl)cc1 [Compound O-1398, N-(2-fluoroethyl)-5-(4-chlorophenyl)-1-(2,4-dichlorophenyl)-4-methyl-1H-pyrazol-3-carboxamide] | 852 ± 175 nM | 27 fold | 97% | 7 µmol/kg | None (3, 10 & 30) | 13 µmol/kg | 8 µmol/kg | – | – | – | – | – | – | CB1 binding affinity, further fold reduction (CB1 receptor; compared to the n-propyl compound O-1399): 5 fold
2 | N-(N-Piperdyl)-3-(2,4-dichlrophenyl)-4-(4′-(1′-methylpentyl)phenyl)-5-methylpyrazole carboxamide [Compound O-1690] | 2.6 ± 0.13 nM | – | – | – | – | – | – | – | – | – | – | – | – | Max % inhibit of spontaneous locomotor activity, Compound Alone (mice [1]; at 10 mg/kg i.v.): 24% (10); Max stim of spontaneous locomotor activity, Compound Alone (mice [1]; at 30 mg/kg i.v.): 18% (30); SA: > dose, 50% activity not achieved at this highest dose tested (mice [1]; mice, i.v.): >30 mg/kg; TF: > dose, 50% activity not achieved at this highest dose tested (mice [2]; i.v.): >30 mg/kg; RT: > dose, 50% activity not achieved at this highest dose tested (mice [3]; i.v.): >30 mg/kg; Max % inhibit of spontaneous locomotor activity, Compound with 3 mg/kg Δ^9-THC (mice [4]; at 0.3 mg/kg i.v.): 88% (0.3); SA: maximum % antagonism of 3 mg/kg Δ^9-THC (mice [4]; at 1 mg/kg i.v.): 65% (1); Max stim of spontaneous locomotor activity, Compound with 3 mg/kg Δ^9-THC (mice [4]; at 10 mg/kg i.v.): 39% (10); antagonist potency, fold increase for antinociception (mice [5]; compared to O-1302): approximately 3 fold; antagonist potency, fold increase for hypothermia (mice [6]; compared to O-1302): approximately 3 fold
3 | CCCCC(C)c1c(C)c(C(=O)NN2CCCCC2)nn1-c1ccc(Cl)cc1Cl (stereo not drawn) [Compound O-1559] | 233 nM | – | – | – | – | – | – | 118% | > 30 mg/kg | stim at 3, 10 & 30 | > 30 mg/kg | > 30 mg/kg | – | –
4 | CCCCCc1ccc(-n2nc(C(=O)NN3CCCCC3)c(C)c2-c2ccc(Cl)cc2)cc1 [Compound O-1255] | 433 ± 103 nM | – | 20% | – | None (3, 10 & 30) | – | – | – | > 30 mg/kg | – | > 30 mg/kg | > 30 mg/kg | – | CB1 binding affinity, fold less than the n-butyl compound (CB1 receptor; compared to O-1254): ~2 fold; Max % inhibit of spontaneous locomotor activity, Compound with 3 mg/kg Δ^9-THC (mice [4]; at 10 mg/kg i.v.): 65% (10); SA: maximum % antagonism of 3 mg/kg Δ^9-THC (mice [4]; at 10 mg/kg i.v.): 0% (10); Max stim of spontaneous locomotor activity, Compound with 3 mg/kg Δ^9-THC (in words) (mice [4]; at the dose(s) [mg/kg] given in parentheses in the cell): None (10); % MPE: maximum % antagonism of 3 mg/kg Δ^9-THC (mice [5]; at 10 mg/kg i.v.): 13% (10); RT: maximum % antagonism of 3 mg/kg Δ^9-THC (mice [6]; at 10 mg/kg i.v.): 14% (10)
5 | Cc1c(C(=O)NN2CCCCC2)nn(-c2ccccc2)c1-c1ccc(Cl)cc1 [Compound O-1300] | – | – | – | – | – | – | – | 54% | > 30 mg/kg | stim at 30 | > 30 mg/kg | > 30 mg/kg | 150 ± 20 nM | CB1 binding affinity, fold less than SR 141716A (CB1 receptor; compared to SR 141716A): 24 fold
6 | CCCNC(=O)c1nn(-c2ccc(Cl)cc2Cl)c(-c2ccc(Cl)cc2)c1C [Compound O-1399, N-(n-propyl)-5-(4-chlorophenyl)-1-(2,4-dichlorophenyl)-4-methyl-1H-pyrazole-3-carboxamide] | – | 5 fold | – | 9 µmol/kg | None (3, 10 & 30) | 24 µmol/kg | 10 µmol/kg | – | – | – | – | – | 167 ± 32 nM | inhibition in vivo at 30 mg/kg (mice [1]; Mus musculus, iv, at 30 mg/kg i.v., read-out: Max % inhibit of spontaneous locomotor activity, Compound Alone): 100%

From US6509367B1 (priority 2001, dated 2003)
